The NIST ThermoML archive (doi:10.1021/acs.jced.7b00377)
± gives the expanded uncertainty stated by the source.

What was measured:
[1] = Liquid; for mass density: 101.33 kPa, Pycnometric method; for vapor or sublimation pressure: Ebulliometric method (Recirculating still)
[2] = refractive index (Na D-line) (dimensionless); conditions: 298.15 K; 101.33 kPa; Liquid; Standard Abbe refractometry

mass density ([1]; 298.15 K) | vapor or sublimation pressure ([1]; 320.54 K) | vapor or sublimation pressure ([1]; 335.1 K) | vapor or sublimation pressure ([1]; 344.53 K) | vapor or sublimation pressure ([1]; 351.76 K) | vapor or sublimation pressure ([1]; 359.38 K) | vapor or sublimation pressure ([1]; 370.93 K) | vapor or sublimation pressure ([1]; 379.83 K) | vapor or sublimation pressure ([1]; 386.16 K) | vapor or sublimation pressure ([1]; 393.18 K) | vapor or sublimation pressure ([1]; 397.46 K) | vapor or sublimation pressure ([1]; 401.87 K) | vapor or sublimation pressure ([1]; 405.77 K) | vapor or sublimation pressure ([1]; 410.02 K) | refractive index [2] | mass density ([1]; 293.15 K) | vapor or sublimation pressure ([1]; 381.08 K) | vapor or sublimation pressure ([1]; 390.9 K) | SMILES
823.8 ± 0.6 kg/m3 | 5 ± 0.05 kPa | 10 ± 0.06 kPa | 15 ± 0.09 kPa | 20.02 ± 0.12 kPa | 26.67 ± 0.17 kPa | 39.9 ± 0.23 kPa | 53.33 ± 0.3 kPa | 64.8 ± 0.37 kPa | 79.6 ± 0.44 kPa | 89.9 ± 0.5 kPa | 101.33 ± 0.55 kPa | 112 ± 0.61 kPa | 125 ± 0.67 kPa | 1.3873 ± 0.0004 | – | – | – | CCOCOCC(C)C [1-(ethoxymethoxy)-2-methylpropane]
– | – | – | – | – | – | – | – | – | – | – | – | – | – | 1.3939 ± 0.0004 | 801.8 ± 0.6 kg/m3 | 101.33 ± 0.7 kPa | – | CC(C)CO [2-methyl-1-propanol]
809.5 ± 0.6 kg/m3 | – | – | – | – | – | – | – | – | – | – | – | – | – | 1.3971 ± 0.0004 | – | – | 101.33 ± 0.7 kPa | CCCCO [butan-1-ol]
